Patent US10238713B2, “Cyclic tetrapeptides and therapeutic applications thereof” (LODZ UNIVERSITY OF TECHNOLOGY, priority 2010, dated 2019)
“And” between values parts separate entries of the source, which are not always exact repeats. Equal values may be shown once. Read-outs that look alike come from different tables or passages of the source. Non-standard residues stand in square brackets, D forms with d. Residues, ends and D or L forms follow the SMILES beside them. β3hF = N[C@H](CC(=O)O)Cc1ccccc1

Tests used:
[1] = tested on: LPS-induced TNF-α production; assay type: cell-based; conditions: for % inhibition vs. DMSO / TNF-α: Table 2A
Method: Human whole blood was diluted 10-fold with RPMI-1640 medium and distributed to 24-well culture plates in 1 ml aliquots. LPS was added to the culture at a concentration of 1 μg/ml. The studied peptides were used at concentrations of 1, 10 and 100 μg/ml. After overnight incubation, the supernatants were harvested and frozen at −20° C. until cytokine determination. TNF-α activity was determined using a bioassay. Briefly, WEHI 164.13 cells (ATCC CRL 1751) were seeded at a concentration of 2×10^4 cells/well in quadriplicate. Increasing dilutions of the assayed supernatant were mixed with the target cells in the presence of actinomycin D (1 μg/ml). After 20 h of incubation, MTT was added into the wells, and the cultures were incubated for an additional 4 h. […] The detection limit of the assay was about 2.5 pg/ml. One unit of TNF-α activity was defined as an inverse of supernatant dilution where 50% cell death took place. The cultures labeled “Control (−)” contained no LPS. The cultures labeled “Control (LPS)” contained LPS and none of the studied compounds. Statistical analysis was not applied since the data derive from single cultures (wells).

[2] = tested on: PHA-induced proliferation of human peripheral blood mononuclear cells (PBMC); assay: Proliferative response of PBMC to PHA (MTT); assay type: cell-based; conditions: 1 μg/ml, four-day incubation; FIGS. 9A-9B; listed as 4B8M
Method: PBMC were isolated by centrifugation on Ficoll-uropoline gradient (density 1.077 g/ml) (Lymphoprep; PAA Laboratories), at 800×g for 20 min at 4° C. The interphase cells, consisting of lymphocytes (20%) and monocytes (80%) were then washed three times with Hanks' medium and re-suspended in the culture medium at density of 2×10^6 cells/ml.
The isolated PBMC were distributed into 96-well flat-bottom plates in 100 μl aliquots (2×10^5 cells/well). PHA was used at concentration of 5 μg/ml. The compounds were tested at concentrations of 1, 10 and 100 μg/ml. DMSO at appropriate dilutions served as control. After a four-day incubation in a cell culture incubator, the proliferative response of cells was determined by the colorimetric MTT method (Hansen et al., J. Immunol. Methods, 1989, pp. 203-210). The data are presented as a mean OD value from quadriplicate wells ±standard error (SE). The cultures “Control (−)” contained no mitogen (PHA). The cultures “Control (PHA)” contained PHA but not cyclic tetrapeptides.
Briefly, 25 μl of MTT (5 mg/ml) stock solution was added per well at the end of cell incubation and the plates were incubated for 3 h in a cell culture incubator. Then, 100 μl of the extraction buffer (20% SDS with 50% DMF, pH 4.7) was added. After additional overnight incubation, the optical density was measured at 550 nm (Dynatech 5000).

[3] = tested on: CBA mice, cellular immune response to ovalbumin; assay: Delayed type hypersensitivity (DTH) test to ovalbumin; assay type: in vivo; conditions: two 100 μg intraperitoneal doses; FIG. 7
Method: Male CBA mice 8-12 weeks old were delivered by The Institute of Laboratory Medicine, Lodz, Poland. The mice had free access to water and pelleted food. Ovoalbumin was from Sigma and the adjuvants from Difeo.
Mice were sensitized subcutaneously with 5 μg of ovalbumin (OVA) emulsified in Freund's complete adjuvant in the tail base. After 4 days the mice were challenged with 50 μg of OVA in Freund's incomplete adjuvant in the hind footpads. Following the next 24 hours, the footpad thickness was measured using a caliper. Controls (background response mice) were not sensitized but received the challenging dose of OVA. The compound of formula I-A and the reference compound were administered to mice in two 100 μg intraperitoneal doses, 2 h before and 24 h after the sensitizing dose of antigen.

[4] = tested on: CBA mice, humoral immune response to sheep erythrocytes; assay: Primary humoral immune response to SRBC in vivo (antibody-forming cells in spleen); conditions: 10 or 100 μg, intraperitoneal, 2 h after immunization, measured after 4 days; FIG. 6
Method: CBA female mice, 8-12 weeks old, were delivered by The Institute of Laboratory Medicine, Lodz, Poland. The mice had free access to water and pelleted food. The local ethics committee approved the study. Sheep erythrocytes (SRBC) were delivered by Wroclaw University of Life and Environmental Sciences, Poland, and maintained on RPMI-1640 medium.
Mice were immunized with 0.2 ml of 5% SRBC suspension (0.5 ml of SRBC pellet re-suspended to a volume of 10 ml of 0.9% NaCl), intraperitonelly. After 4 days the number of antibody-forming cells (AFC) in the spleens was determined using an assay of local hemolysis in agar gel (per Mishell et al., J Exp Med, 1967, 126, 423-442). The results are presented in FIG. 6 as a mean value of 5 mice ±standard error and expressed as AFC number per 10^6 of viable splenocytes.
Mice were immunized with SRBC as described above and after 2 h were given 10 or 100 μg of the compound of formula I-A. Cyclosporin A (CsA) served as a reference drug. The number of antibody-forming cells to SRBC was measured after 4 days.

## O=C1C[C@H](Cc2ccccc2)NC(=O)[C@@H]2CCCN2C(=O)[C@@H]2CCCN2C(=O)[C@H](Cc2ccccc2)N1 [I-A] (cyclo(FPP[β3hF]))
[1]; compound 1 μg/ml
  % inhibition vs. DMSO: 9.8%
[1]; compound 1 μg/ml, LPS 1 μg/ml, overnight
  TNF-α: 7364 pg/mL
[1]; compound 10 μg/ml
  % inhibition vs. DMSO: 10.4%
  TNF-α: 7176 pg/mL
[1]; compound 100 μg/ml
  % inhibition vs. DMSO: 9.2%
[1]; compound 100 μg/ml (DMSO only: 196)
  TNF-α: 178 pg/mL
[1]; Table 2B, compound 1 μg/ml
  % of inhibition vs. DMSO: 10.0%
  TNF alpha: 4097 pg/mL
[1]; Table 2B, compound 10 μg/ml
  TNF alpha: 4416 pg/mL
[1]; Table 2B, compound 100 μg/ml (DMSO only: 854)
  TNF alpha: 979 pg/mL
[2]
  PHA-induced PBMC proliferation, P vs DMSO at appropriate dilution: 0.9995 and 0.9919
[3]
  effect on delayed-type hypersensitivity reaction to OVA (footpad thickness): inhibited the delayed-type hypersensitivity reaction to OVA
  suppressive action on DTH compared with reference compounds: stronger than those of CLA and CsA
[4]
  inhibition of the number of antibody-forming cells to SRBC: more inhibitory at both doses than CsA
